Laboratory results from ChEMBL document CHEMBL1201862, “PubChem BioAssay data set” (2004).
Activity calls are given as the source filed them.

What was measured:
Vero = experiment: cytotoxicity of synthesized analogs in Vero cells, SAR follow-up, cytotoxicity control for West Nile virus antiviral project, cell-based, set II (AID 2402); assay type: functional; details: Chlorocebus sabaeus
SUMO-activating enzyme [1] = target: T1, SUMO-activating enzyme (Homo sapiens, UniProt Q9UBT2); experiment: SUMOylation inhibitor hit validation, confirmation, SUMOylation inhibitor project, biochemical, AlphaScreen (AID 2018); assay type: functional
T1 sequence (Q9UBE0 whole entry): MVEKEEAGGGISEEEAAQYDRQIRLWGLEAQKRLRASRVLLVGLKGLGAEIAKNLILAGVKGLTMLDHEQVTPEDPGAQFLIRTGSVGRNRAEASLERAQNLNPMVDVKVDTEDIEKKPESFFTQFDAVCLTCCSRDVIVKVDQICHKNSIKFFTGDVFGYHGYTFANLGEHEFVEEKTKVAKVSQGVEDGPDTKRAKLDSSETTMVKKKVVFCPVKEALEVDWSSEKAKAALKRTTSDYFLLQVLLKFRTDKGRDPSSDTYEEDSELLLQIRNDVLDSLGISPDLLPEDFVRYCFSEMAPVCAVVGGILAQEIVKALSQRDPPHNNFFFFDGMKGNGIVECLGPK
T1 sequence (Q9UBT2 whole entry): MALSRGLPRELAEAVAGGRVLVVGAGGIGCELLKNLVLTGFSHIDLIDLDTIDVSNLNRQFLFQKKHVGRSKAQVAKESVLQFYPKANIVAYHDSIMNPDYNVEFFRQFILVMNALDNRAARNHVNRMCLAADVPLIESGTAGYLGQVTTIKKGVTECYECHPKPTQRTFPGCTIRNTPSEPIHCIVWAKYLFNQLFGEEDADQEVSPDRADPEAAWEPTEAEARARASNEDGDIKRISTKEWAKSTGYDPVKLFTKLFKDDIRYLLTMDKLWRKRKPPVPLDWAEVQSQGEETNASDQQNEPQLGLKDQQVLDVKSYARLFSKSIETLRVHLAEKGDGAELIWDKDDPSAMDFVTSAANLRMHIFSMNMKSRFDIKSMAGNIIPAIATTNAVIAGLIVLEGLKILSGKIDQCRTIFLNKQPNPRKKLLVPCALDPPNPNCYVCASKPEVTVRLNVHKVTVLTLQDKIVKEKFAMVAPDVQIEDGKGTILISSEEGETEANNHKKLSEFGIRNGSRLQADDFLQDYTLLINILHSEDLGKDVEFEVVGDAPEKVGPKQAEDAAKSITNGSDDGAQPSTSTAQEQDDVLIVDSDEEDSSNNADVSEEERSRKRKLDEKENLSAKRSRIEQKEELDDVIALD

SUMO-activating enzyme [2] = target: T1, SUMO-activating enzyme; experiment: inhibitors of in vitro SUMOylation cascade, primary screen, biochemical, HTRF, uHTS (AID 2006); assay type: protein-complex assay
[3] = target: T2, Calpain-2 catalytic subunit (Sus scrofa, UniProt P43367); experiment: pig calpain II inhibitor potency, dose response, biochemical, fluorogenic peptide substrate (AID 1420); assay type: functional
T2 sequence (P43367 whole entry): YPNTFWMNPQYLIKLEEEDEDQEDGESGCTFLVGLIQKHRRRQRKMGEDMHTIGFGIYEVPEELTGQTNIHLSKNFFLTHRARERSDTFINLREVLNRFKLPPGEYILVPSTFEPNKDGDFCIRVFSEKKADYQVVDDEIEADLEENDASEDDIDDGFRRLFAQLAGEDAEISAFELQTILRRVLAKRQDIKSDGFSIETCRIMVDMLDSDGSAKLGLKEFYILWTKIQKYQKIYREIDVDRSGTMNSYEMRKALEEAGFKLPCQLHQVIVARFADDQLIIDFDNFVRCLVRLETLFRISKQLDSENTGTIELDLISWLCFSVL

[4] = target: Bifunctional protein GlmU (Mycobacterium tuberculosis, UniProt P9WMN3); experiment: Inhibitors of Mycobacterial Glucosamine-1-phosphate acetyl transferase (GlmU). Secondary screen.; set-up: species or system Mycobacterium tuberculosis H37Rv
Sequence of Bifunctional protein GlmU (P9WMN3 whole entry): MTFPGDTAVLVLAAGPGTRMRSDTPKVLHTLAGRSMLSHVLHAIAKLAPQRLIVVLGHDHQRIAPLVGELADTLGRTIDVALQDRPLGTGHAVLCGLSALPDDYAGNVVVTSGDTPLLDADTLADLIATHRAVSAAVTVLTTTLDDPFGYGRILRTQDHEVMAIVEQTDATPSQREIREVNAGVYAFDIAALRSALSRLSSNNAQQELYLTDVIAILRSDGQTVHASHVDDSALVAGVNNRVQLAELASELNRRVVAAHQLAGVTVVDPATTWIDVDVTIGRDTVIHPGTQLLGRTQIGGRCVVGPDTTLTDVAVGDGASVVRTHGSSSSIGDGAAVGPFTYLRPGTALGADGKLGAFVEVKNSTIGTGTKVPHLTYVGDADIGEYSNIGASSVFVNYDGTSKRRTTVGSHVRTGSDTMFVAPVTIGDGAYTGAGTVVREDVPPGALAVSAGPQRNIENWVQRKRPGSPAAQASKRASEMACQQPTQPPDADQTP

[5] = target: Induced myeloid leukemia cell differentiation protein Mcl-1 (Homo sapiens, UniProt Q07820); assay type: functional
Sequence of Induced myeloid leukemia cell differentiation protein Mcl-1 (Q07820 whole entry): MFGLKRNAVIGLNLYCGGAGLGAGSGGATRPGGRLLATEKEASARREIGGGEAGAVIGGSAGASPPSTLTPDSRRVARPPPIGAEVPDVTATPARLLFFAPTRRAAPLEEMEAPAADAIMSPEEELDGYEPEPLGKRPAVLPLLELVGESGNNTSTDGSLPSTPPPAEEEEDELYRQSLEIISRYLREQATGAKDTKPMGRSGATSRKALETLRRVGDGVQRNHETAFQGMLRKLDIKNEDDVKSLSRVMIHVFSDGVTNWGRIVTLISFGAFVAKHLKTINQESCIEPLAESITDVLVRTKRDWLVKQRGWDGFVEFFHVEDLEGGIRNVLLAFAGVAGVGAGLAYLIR

Caspase-6 = target: T3, Caspase-6 (Homo sapiens, UniProt P55212); experiment: human caspase-6 inhibitors, dose response, biochemical, VEID-R110 fluorescence, cherry-pick (AID 720632)
T3 sequence (P55212 whole entry): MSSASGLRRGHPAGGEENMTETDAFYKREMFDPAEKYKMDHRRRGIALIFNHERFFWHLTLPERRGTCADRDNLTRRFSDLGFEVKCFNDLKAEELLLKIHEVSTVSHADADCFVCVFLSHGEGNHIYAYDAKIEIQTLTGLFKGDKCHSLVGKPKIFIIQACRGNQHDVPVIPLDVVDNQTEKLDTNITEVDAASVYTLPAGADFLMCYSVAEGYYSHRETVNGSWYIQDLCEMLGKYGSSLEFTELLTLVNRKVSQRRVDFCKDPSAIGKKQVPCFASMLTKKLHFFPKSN

Transthyretin = Transthyretin (Homo sapiens, UniProt P02766); experiment: Luminescence-based cell-based high throughput dose response assay to identify activators of Transthyretin (TTR) transcription.; assay type: functional
[6] = target: RNA-editing ligase 1, mitochondrial (Trypanosoma brucei brucei, UniProt P86926); experiment: TbREL1 ligase inhibitors, dose response, biochemical, fluorescence, Trypanosoma brucei (AID 1117295); assay type: functional
Sequence of RNA-editing ligase 1, mitochondrial (P86926 whole entry): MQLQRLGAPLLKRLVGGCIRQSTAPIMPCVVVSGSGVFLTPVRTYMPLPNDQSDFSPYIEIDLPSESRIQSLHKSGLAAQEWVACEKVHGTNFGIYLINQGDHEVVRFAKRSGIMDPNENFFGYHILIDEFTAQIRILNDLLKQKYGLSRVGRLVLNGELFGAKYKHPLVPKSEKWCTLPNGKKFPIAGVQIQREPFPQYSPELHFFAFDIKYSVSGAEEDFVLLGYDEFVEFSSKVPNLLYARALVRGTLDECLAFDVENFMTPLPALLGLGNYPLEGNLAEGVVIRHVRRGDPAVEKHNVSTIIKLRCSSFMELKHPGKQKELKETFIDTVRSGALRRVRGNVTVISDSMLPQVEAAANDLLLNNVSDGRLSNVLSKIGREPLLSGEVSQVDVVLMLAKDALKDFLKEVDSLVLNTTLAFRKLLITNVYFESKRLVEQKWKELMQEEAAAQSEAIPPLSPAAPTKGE

[7] = P. falciparum 3D7-ScDHODH growth inhibitors, dose response, SYBR Green, dry powder samples (AID 1159570); assay type: functional, cell-based;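 note: parasite growth measured after 72 hours of compound exposure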
[8] = HepG2 cell cytotoxicity, dose response, cytotoxicity control, plate reader, dry powder samples (AID 1159569); assay type: functional, cell-based;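 note: inhibitor potency with signal falling toward the positive control level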
[9] = P. falciparum Dd2 growth inhibitors, dose response, SYBR Green, cherry-picked samples (AID 1159567); assay type: functional, cell-based
[10] = P. falciparum Dd2 blood-stage growth inhibition, dose response, SYBR Green fluorescence, erythrocytes, dry powder, set 2 (AID 1159574); assay type: functional, cell-based
[11] = P. falciparum Dd2 growth inhibitors, dose response, SYBR Green, dry powder samples (AID 1159566); assay type: functional, cell-based;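 note: potency for growth inhibition with lower SYBR green DNA signal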
[12] = P. falciparum ATP4 D1247Y mutant growth inhibitors, dose response, NITD609-resistant line, SYBR Green, dry powder (AID 1159571); assay type: functional, cell-based;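 note: parasites synchronized at ring stage by sorbitol before testing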
[13] = Concentration-dependent survival of SW480 colon cancer line, luminescence detection with CellTiter-Glo, half-maximal inhibitory concentration (AID 1117338); assay type: functional
[14] = RKO cell viability reduction, dose response, CellTiter-Glo luminescence (AID 1117322); assay type: functional
[15] = cytotoxicity toward HCT116 cells – cell-based, CellTiter-Glo luminescence, IC50, dose response (AID 1117332); assay type: functional; details: HCT-116
[16] = SNU-C1 cell viability reduction, dose response, CellTiter-Glo luminescence (AID 1117323); assay type: functional, cell-based
[17] = cytotoxicity toward Colo320 cells – cell-based, CellTiter-Glo luminescence, IC50, dose response (AID 1117334); assay type: functional; details: COLO 320
[18] = cytotoxicity toward HT-29 cells – cell-based, CellTiter-Glo luminescence, IC50, dose response (AID 1117330); assay type: functional
[19] = CellTiter-Glo luminescent dose response of DLD-1 viability loss (AID 1117352); assay type: functional
[20] = HCT116 cell viability decrease, GSK3B pretreatment – CellTiter-Glo, IC50, dose response (AID 1117339); assay type: functional; details: HCT-116

For `OC1c2c(F)cccc2N=C2CCCN21` (stereo not drawn), the CC50 (Vero) was > 200000 nM (active).

With `O=C(O)c1cccc(Cn2c(Cl)c(/C=N/NC(=O)c3cc4ccccc4cc3O)sc2=O)c1` the IC50 (SUMO-activating enzyme [1]) was 1860 nM (active), the IC50 (SUMO-activating enzyme [2]) was 24100 nM (active) and the IC50 [3] was > 50000 nM (not active). The IC50 [4] was 134000 nM (active), the IC50 [5] was 3740 nM (active) and the AC50 (Caspase-6) was 18100 nM (active).

For `Cc1ccc(/C=N/NC(=O)c2csc(C)c2)o1`, the EC50 (Transthyretin) was > 167000 nM (inactive).

With `COC(=O)C1=C(C)N(Cc2cccc(C(F)(F)F)c2)C(NCc2cc(OC)c(OC)c(OC)c2)=NC1c1ccccc1C(F)(F)F` (stereo not drawn) the IC50 [6] was > 96600 nM (inactive).

In the case of `COc1cccc(C#Cc2ccc([C@H]3[C@@H](CO)N4C(=O)CN(C(=O)Cc5ccccc5)C[C@H]34)cc2)c1`, the AC50 [7] was 114 nM (active), the AC50 [8] was 21100 nM (active) and the AC50 [9] was < 300 nM (active). For the same compound, the AC50 [10] was 19.5 nM (active), the AC50 [11] was 30.1 nM (active) and the AC50 [12] was 36.3 nM (active).

With `O=C(Nc1ccc(Br)cc1)c1cc(Br)c(Br)s1` [TIBROFAN] the IC50 [13] was 123 nM (active), the IC50 [14] was 431 nM (active) and the IC50 [15] was 541 nM (active). For the same compound, the IC50 [16] was 1100 nM (active), the IC50 [17] was 18 nM (active) and the IC50 [18] was 520 nM (active). The IC50 [19] was 335 nM (active) and the IC50 [20] was 342 nM (active).
